Measurements published in the supplement of paper PMC6045584.
± gives the standard deviation of the averaged measurements.

Legend:
CARBOPLATIN [1] = compound: T1, O=C(O)C1(C(=O)O)CCC1.[NH2-].[NH2-].[Pt+2] [CARBOPLATIN]; test: surviving fraction relative to DMSO-only wells; higher = less growth inhibition; conditions: exposure time: 5 days
Procedure, shortened: (§1)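 After seeding at 250–500 cells per well in 384-well plates and a 24-hour wait, log-phase tumour cell lines were exposed without interruption for five days to inhibitors at 0.5, 1, 5, 10, 50, 100, 500 and 1000 nM. CellTiter-Glo luminescence was recorded after 10 minutes at room temperature. Viability is reported as surviving fraction, the luminescence normalised to the median of DMSO-only wells.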

[2] = compound: CC(=O)NCC(=O)N1[C@@H]2CC[C@H]1c1ccc(Nc3ncc(C(F)(F)F)c(NC4CCC4)n3)cc12; test: as above; conditions: exposure time: 5 days
Procedure, shortened: as §1

PACLITAXEL [3] = compound: T2, CC(=O)O[C@H]1C(=O)[C@@]2(C)[C@H]([C@H](OC(=O)c3ccccc3)[C@]3(O)C[C@H](OC(=O)[C@H](O)[C@@H](NC(=O)c4ccccc4)c4ccccc4)C(C)=C1C3(C)C)[C@]1(OC(C)=O)CO[C@@H]1C[C@@H]2O [PACLITAXEL]; test: as above; conditions: exposure time: 5 days
Procedure, shortened: as §1

CELECOXIB [4] = compound: T3, Cc1ccc(-c2cc(C(F)(F)F)nn2-c2ccc(S(N)(=O)=O)cc2)cc1 [CELECOXIB]; test: as above; conditions: exposure time: 5 days
Procedure, shortened: as §1

CAMPTOTHECIN [5] = compound: T4, CC[C@@]1(O)C(=O)OCc2c1cc1n(c2=O)Cc2cc3ccccc3nc2-1 [CAMPTOTHECIN]; test: as above; conditions: exposure time: 5 days
Procedure, shortened: as §1

YM155 [6] = compound: T5, COCC[n+]1c2c(n(Cc3cnccn3)c1C)C(=O)c1ccccc1C2=O [YM155]; test: as above; conditions: exposure time: 5 days
Procedure, shortened: as §1

GEFITINIB [7] = compound: T6, COc1cc2ncnc(Nc3ccc(F)c(Cl)c3)c2cc1OCCCN1CCOCC1 [GEFITINIB]; test: as above; conditions: exposure time: 5 days
Procedure, shortened: as §1

[8] = compound: CC(=O)c1c(C)c2cnc(Nc3ccc(N4CCNCC4)cn3)nc2n(C2CCCC2)c1=O; test: as above; conditions: exposure time: 5 days
Procedure, shortened: as §1

OSI-906 [9] = compound: T7, C[C@]1(O)C[C@@H](c2nc(-c3ccc4ccc(-c5ccccc5)nc4c3)c3c(N)nccn32)C1 [OSI-906]; test: as above; conditions: exposure time: 5 days
Procedure, shortened: as §1

CARBOPLATIN [10] = compound: T1, CARBOPLATIN; test: area under dose-response curve of surviving fraction (unscaled, Aref=0) (surviving fraction x log10(nM)); higher = more resistant; conditions: exposure time: 5 days; dose range 0.5-1000 nM
Procedure, shortened: (§2)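 Surviving fractions were fitted by 3-parameter logistic regression in the drc R package to give dose-response survival curves. They came from tumour cell lines treated for five days with eight inhibitor concentrations from 0.5 to 1000 nM and read by CellTiter-Glo luminescence against DMSO-only wells. The area under the curve is the unscaled activity area. It was calculated over log10 dose with Aref = 0.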

[11] = compound: CC(=O)NCC(=O)N1[C@@H]2CC[C@H]1c1ccc(Nc3ncc(C(F)(F)F)c(NC4CCC4)n3)cc12; test: as above; conditions: exposure time: 5 days; dose range 0.5-1000 nM
Procedure, shortened: as §2

PACLITAXEL [12] = compound: T2, PACLITAXEL; test: as above; conditions: exposure time: 5 days; dose range 0.5-1000 nM
Procedure, shortened: as §2

CELECOXIB [13] = compound: T3, CELECOXIB; test: as above; conditions: exposure time: 5 days; dose range 0.5-1000 nM
Procedure, shortened: as §2

CAMPTOTHECIN [14] = compound: T4, CAMPTOTHECIN; test: as above; conditions: exposure time: 5 days; dose range 0.5-1000 nM
Procedure, shortened: as §2

YM155 [15] = compound: T5, YM155; test: as above; conditions: exposure time: 5 days; dose range 0.5-1000 nM
Procedure, shortened: as §2

GEFITINIB [16] = compound: T6, GEFITINIB; test: as above; conditions: exposure time: 5 days; dose range 0.5-1000 nM
Procedure, shortened: as §2

[17] = compound: CC(=O)c1c(C)c2cnc(Nc3ccc(N4CCNCC4)cn3)nc2n(C2CCCC2)c1=O; test: as above; conditions: exposure time: 5 days; dose range 0.5-1000 nM
Procedure, shortened: as §2

OSI-906 [18] = compound: T7, OSI-906; test: as above; conditions: exposure time: 5 days; dose range 0.5-1000 nM
Procedure, shortened: as §2

LNCAP PROSTATE
surviving fraction (CARBOPLATIN [1]; 0.5 nM): 1.02 ± 0.043 | surviving fraction (CARBOPLATIN [1]; 1 nM): 0.919 ± 0.079 | surviving fraction (CARBOPLATIN [1]; 5 nM): 0.981 ± 0.023 | surviving fraction (CARBOPLATIN [1]; 10 nM): 1.03 ± 0.086 | surviving fraction (CARBOPLATIN [1]; 50 nM): 1.09 ± 0.031 | surviving fraction (CARBOPLATIN [1]; 100 nM): 1.04 ± 0.046 | surviving fraction (CARBOPLATIN [1]; 500 nM): 1 ± 0.18 | surviving fraction (CARBOPLATIN [1]; 1000 nM): 0.977 ± 0.077 | surviving fraction ([2]; 0.5 nM): 0.859 ± 0.059 | surviving fraction ([2]; 1 nM): 0.872 ± 0.052 | surviving fraction ([2]; 5 nM): 0.77 ± 0.08 | surviving fraction ([2]; 10 nM): 0.893 ± 0.19 | surviving fraction ([2]; 50 nM): 0.416 ± 0.044 | surviving fraction ([2]; 100 nM): 0.46 ± 0.046 | surviving fraction ([2]; 500 nM): 0.689 ± 0.0089 | surviving fraction ([2]; 1000 nM): 0.664 ± 0.097 | surviving fraction (PACLITAXEL [3]; 0.5 nM): 0.531 ± 0.04 | surviving fraction (PACLITAXEL [3]; 1 nM): 0.358 ± 0.086 | surviving fraction (PACLITAXEL [3]; 5 nM): 0.054 ± 0.015 | surviving fraction (PACLITAXEL [3]; 10 nM): 0.0533 ± 0.004 | surviving fraction (PACLITAXEL [3]; 50 nM): 0.0417 ± 0.0015 | surviving fraction (PACLITAXEL [3]; 100 nM): 0.0347 ± 0.0038 | surviving fraction (PACLITAXEL [3]; 500 nM): 0.0387 ± 0.0021 | surviving fraction (PACLITAXEL [3]; 1000 nM): 0.0477 ± 0.0055 | surviving fraction (CELECOXIB [4]; 0.5 nM): 1.02 ± 0.042 | surviving fraction (CELECOXIB [4]; 1 nM): 0.956 ± 0.067 | surviving fraction (CELECOXIB [4]; 5 nM): 0.986 ± 0.057 | surviving fraction (CELECOXIB [4]; 10 nM): 1.01 ± 0.081 | surviving fraction (CELECOXIB [4]; 50 nM): 0.919 ± 0.012 | surviving fraction (CELECOXIB [4]; 100 nM): 0.998 ± 0.083 | surviving fraction (CELECOXIB [4]; 500 nM): 0.885 ± 0.057 | surviving fraction (CELECOXIB [4]; 1000 nM): 0.94 ± 0.065 | surviving fraction (CAMPTOTHECIN [5]; 0.5 nM): 0.98 ± 0.035 | surviving fraction (CAMPTOTHECIN [5]; 1 nM): 0.802 ± 0.047 | surviving fraction (CAMPTOTHECIN [5]; 5 nM): 0.254 ± 0.017 | surviving fraction (CAMPTOTHECIN [5]; 10 nM): 0.164 ± 0.01 | surviving fraction (CAMPTOTHECIN [5]; 50 nM): 0.0637 ± 0.0064 | surviving fraction (CAMPTOTHECIN [5]; 100 nM): 0.0507 ± 0.0067 | surviving fraction (CAMPTOTHECIN [5]; 500 nM): 0.023 ± 0.0035 | surviving fraction (CAMPTOTHECIN [5]; 1000 nM): 0.0203 ± 0.0011 | surviving fraction (YM155 [6]; 0.5 nM): 0.92 ± 0.085 | surviving fraction (YM155 [6]; 1 nM): 0.943 ± 0.033 | surviving fraction (YM155 [6]; 5 nM): 0.87 ± 0.097 | surviving fraction (YM155 [6]; 10 nM): 0.978 ± 0.1 | surviving fraction (YM155 [6]; 50 nM): 0.227 ± 0.032 | surviving fraction (YM155 [6]; 100 nM): 0.069 ± 0.0044 | surviving fraction (YM155 [6]; 500 nM): 0.0267 ± 0.0055 | surviving fraction (YM155 [6]; 1000 nM): 0.0267 ± 0.0015 | surviving fraction (GEFITINIB [7]; 0.5 nM): 1.1 ± 0.22 | surviving fraction (GEFITINIB [7]; 1 nM): 0.915 ± 0.067 | surviving fraction (GEFITINIB [7]; 5 nM): 0.9827 ± 0.0059 | surviving fraction (GEFITINIB [7]; 10 nM): 0.998 ± 0.043 | surviving fraction (GEFITINIB [7]; 50 nM): 0.939 ± 0.032 | surviving fraction (GEFITINIB [7]; 100 nM): 0.947 ± 0.03 | surviving fraction (GEFITINIB [7]; 500 nM): 1.03 ± 0.08 | surviving fraction (GEFITINIB [7]; 1000 nM): 0.947 ± 0.12 | surviving fraction ([8]; 0.5 nM): 0.953 ± 0.0097 | surviving fraction ([8]; 1 nM): 0.975 ± 0.087 | surviving fraction ([8]; 5 nM): 0.854 ± 0.13 | surviving fraction ([8]; 10 nM): 0.857 ± 0.11 | surviving fraction ([8]; 50 nM): 0.952 ± 0.15 | surviving fraction ([8]; 100 nM): 1.1 ± 0.13 | surviving fraction ([8]; 500 nM): 0.961 ± 0.079 | surviving fraction ([8]; 1000 nM): 0.945 ± 0.16 | surviving fraction (OSI-906 [9]; 0.5 nM): 1.12 ± 0.058 | surviving fraction (OSI-906 [9]; 1 nM): 1.07 ± 0.095 | surviving fraction (OSI-906 [9]; 5 nM): 1.07 ± 0.036 | surviving fraction (OSI-906 [9]; 10 nM): 1.11 ± 0.018 | surviving fraction (OSI-906 [9]; 50 nM): 0.991 ± 0.12 | surviving fraction (OSI-906 [9]; 100 nM): 1.05 ± 0.1 | surviving fraction (OSI-906 [9]; 500 nM): 1.04 ± 0.032 | surviving fraction (OSI-906 [9]; 1000 nM): 1.06 ± 0.026 | area under dose-response curve (CARBOPLATIN [10]): 3.35 | area under dose-response curve [11]: 2.3 | area under dose-response curve (PACLITAXEL [12]): 0.354 | area under dose-response curve (CELECOXIB [13]): 3.19 | area under dose-response curve (CAMPTOTHECIN [14]): 0.813 | area under dose-response curve (YM155 [15]): 1.82 | area under dose-response curve (GEFITINIB [16]): 3.19 | area under dose-response curve [17]: 3.12 | area under dose-response curve (OSI-906 [18]): 3.5
